Results: ChEMBL document CHEMBL5131499, “Design, synthesis and glycosidase inhibition of C-4 branched LAB and DAB derivatives” (Eur J Med Chem, 2022)

Legend:
Sus scrofa = species on record: Sus scrofa; experiment: Inhibition of porcine kidney alpha-trehalase assessed as release of p-nitrophenol at 1000 uM using p-nitrophenyl glycoside as substrate by spectrometric assay relative to control
[1] = target: Sucrase-isomaltase, intestinal (Rattus norvegicus, UniProt P23739); experiment: Inhibition of rat intestinal sucrase assessed as release of p-nitrophenol using p-nitrophenyl glycoside as substrate by spectrometric assay
Sequence of Sucrase-isomaltase, intestinal (P23739 1-1013 limits assumed): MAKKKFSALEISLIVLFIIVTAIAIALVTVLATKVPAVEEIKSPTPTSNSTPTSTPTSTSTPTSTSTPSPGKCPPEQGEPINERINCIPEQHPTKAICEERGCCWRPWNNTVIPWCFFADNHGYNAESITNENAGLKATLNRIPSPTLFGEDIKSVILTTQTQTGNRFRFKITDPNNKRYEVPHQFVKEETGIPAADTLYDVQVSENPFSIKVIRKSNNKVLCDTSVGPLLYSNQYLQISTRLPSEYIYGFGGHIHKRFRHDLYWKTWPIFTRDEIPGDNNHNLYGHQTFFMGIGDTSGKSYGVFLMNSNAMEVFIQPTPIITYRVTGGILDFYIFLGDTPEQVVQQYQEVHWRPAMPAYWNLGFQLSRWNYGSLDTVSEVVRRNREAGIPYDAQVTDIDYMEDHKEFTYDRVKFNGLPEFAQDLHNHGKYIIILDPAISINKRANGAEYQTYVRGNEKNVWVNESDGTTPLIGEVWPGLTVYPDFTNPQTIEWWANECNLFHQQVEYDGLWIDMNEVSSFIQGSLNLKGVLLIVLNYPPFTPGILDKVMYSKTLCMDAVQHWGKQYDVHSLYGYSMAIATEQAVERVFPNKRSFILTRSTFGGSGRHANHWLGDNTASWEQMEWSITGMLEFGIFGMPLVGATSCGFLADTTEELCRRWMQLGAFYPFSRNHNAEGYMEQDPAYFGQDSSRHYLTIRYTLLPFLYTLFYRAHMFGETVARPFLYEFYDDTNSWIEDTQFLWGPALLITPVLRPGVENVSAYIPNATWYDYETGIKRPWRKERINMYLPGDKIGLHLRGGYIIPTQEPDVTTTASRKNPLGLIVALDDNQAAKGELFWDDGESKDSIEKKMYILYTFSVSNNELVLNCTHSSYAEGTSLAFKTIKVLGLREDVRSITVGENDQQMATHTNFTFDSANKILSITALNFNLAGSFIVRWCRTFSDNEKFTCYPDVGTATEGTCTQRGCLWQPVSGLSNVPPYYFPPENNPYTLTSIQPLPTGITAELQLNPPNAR
Sequence of Sucrase-isomaltase, intestinal (P23739 1014-1841 limits assumed): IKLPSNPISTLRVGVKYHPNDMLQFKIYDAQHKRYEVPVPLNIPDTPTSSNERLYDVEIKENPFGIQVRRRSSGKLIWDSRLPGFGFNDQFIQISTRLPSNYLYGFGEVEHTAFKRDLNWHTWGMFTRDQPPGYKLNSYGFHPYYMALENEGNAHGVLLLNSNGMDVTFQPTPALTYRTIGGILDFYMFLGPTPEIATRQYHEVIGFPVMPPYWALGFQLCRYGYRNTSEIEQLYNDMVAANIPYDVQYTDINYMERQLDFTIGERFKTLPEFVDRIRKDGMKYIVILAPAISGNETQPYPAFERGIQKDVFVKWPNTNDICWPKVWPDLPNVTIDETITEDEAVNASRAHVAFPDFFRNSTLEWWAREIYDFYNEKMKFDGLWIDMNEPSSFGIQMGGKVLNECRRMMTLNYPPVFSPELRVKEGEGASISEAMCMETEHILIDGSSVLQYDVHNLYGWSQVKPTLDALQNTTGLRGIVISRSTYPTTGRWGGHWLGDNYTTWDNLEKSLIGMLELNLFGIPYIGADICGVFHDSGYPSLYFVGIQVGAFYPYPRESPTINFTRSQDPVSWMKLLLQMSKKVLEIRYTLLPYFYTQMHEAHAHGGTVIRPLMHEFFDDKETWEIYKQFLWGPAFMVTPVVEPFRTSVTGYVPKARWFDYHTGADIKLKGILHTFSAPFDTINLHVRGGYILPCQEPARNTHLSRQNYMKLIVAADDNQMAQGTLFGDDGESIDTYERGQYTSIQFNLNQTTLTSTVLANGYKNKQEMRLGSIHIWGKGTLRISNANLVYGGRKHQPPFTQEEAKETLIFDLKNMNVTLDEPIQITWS

[2] = target: Lysosomal alpha-glucosidase (Homo sapiens, UniProt P10253); experiment: Inhibition of human lysosomal alpha glucosidase assessed as release of p-nitrophenol using p-nitrophenyl glycoside as substrate by spectrometric assay
Prunus dulcis = experiment: Inhibition of almond beta-glucosidase assessed as release of p-nitrophenol at 1000 uM using p-nitrophenyl glycoside as substrate by spectrometric assay relative to control
Saccharomyces cerevisiae = experiment: Inhibition of yeast alpha-glucosidase assessed as release of p-nitrophenol at 1000 uM using p-nitrophenyl glycoside as substrate by spectrometric assay relative to control
[3] = Inhibition of rice alpha-glucosidase assessed as release of p-nitrophenol using p-nitrophenyl glycoside as substrate by spectrometric assay; set-up: species or system Oryza sativa
Bos taurus [4] = species on record: Bos taurus; experiment: Inhibition of bovine liver beta-glucosidase assessed as release of p-nitrophenol at 1000 uM using p-nitrophenyl glycoside as substrate by spectrometric assay relative to control
[5] = target: Alpha-galactosidase (Coffea arabica) (UniProt Q42656); experiment: Inhibition of coffee beans alpha-galactosidase assessed as release of p-nitrophenol at 1000 uM using p-nitrophenyl glycoside as substrate by spectrometric assay relative to control
Sequence of Alpha-galactosidase (Coffea arabica) (Q42656 16-378 limits assumed): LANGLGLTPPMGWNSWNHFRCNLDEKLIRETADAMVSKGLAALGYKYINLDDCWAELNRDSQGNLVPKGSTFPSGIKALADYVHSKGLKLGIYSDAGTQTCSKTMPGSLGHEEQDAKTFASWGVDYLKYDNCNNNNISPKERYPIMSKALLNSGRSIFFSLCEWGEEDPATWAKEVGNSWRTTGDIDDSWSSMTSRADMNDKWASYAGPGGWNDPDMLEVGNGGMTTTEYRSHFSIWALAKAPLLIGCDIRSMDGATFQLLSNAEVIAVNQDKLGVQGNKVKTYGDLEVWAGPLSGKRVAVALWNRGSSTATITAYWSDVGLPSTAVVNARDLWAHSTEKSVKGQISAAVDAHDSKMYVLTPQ

Bos taurus [6] = species on record: Bos taurus; experiment: Inhibition of bovine liver beta-galactosidase assessed as release of p-nitrophenol at 1000 uM using p-nitrophenyl glycoside as substrate by spectrometric assay relative to control
[7] = target: T1, Alpha-mannosidase (Canavalia ensiformis) (UniProt C0HJB3); experiment: Inhibition of jack bean alpha-mannosidase assessed as release of p-nitrophenol at 1000 uM using p-nitrophenyl glycoside as substrate by spectrometric assay relative to control
T1 sequence (whole entry): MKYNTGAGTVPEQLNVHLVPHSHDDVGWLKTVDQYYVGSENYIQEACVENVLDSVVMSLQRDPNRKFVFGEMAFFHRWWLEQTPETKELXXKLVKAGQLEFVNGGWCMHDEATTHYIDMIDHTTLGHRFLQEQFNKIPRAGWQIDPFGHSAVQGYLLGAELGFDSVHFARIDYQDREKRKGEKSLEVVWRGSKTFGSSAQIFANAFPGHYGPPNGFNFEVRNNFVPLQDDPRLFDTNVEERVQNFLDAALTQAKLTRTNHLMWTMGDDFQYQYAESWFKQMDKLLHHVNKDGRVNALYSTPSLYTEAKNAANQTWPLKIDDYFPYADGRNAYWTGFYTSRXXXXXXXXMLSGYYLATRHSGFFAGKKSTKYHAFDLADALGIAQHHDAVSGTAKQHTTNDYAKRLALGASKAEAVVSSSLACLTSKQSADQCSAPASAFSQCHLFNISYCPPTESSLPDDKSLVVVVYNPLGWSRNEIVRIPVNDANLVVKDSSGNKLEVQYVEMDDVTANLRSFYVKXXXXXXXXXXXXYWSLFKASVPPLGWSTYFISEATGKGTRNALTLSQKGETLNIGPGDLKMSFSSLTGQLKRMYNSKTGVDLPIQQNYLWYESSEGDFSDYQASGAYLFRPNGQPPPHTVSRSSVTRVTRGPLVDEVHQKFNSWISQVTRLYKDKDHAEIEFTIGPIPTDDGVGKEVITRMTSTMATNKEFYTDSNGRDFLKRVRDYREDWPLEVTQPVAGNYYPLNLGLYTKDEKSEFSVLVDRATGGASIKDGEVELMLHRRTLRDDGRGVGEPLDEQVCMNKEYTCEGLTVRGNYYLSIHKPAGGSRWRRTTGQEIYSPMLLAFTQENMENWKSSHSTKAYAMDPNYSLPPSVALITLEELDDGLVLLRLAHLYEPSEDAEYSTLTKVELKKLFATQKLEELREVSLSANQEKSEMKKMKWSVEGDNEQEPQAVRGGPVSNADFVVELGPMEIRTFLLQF

Helix pomatia = experiment: Inhibition of snail beta-mannosidase assessed as release of p-nitrophenol at 1000 uM using p-nitrophenyl glycoside as substrate by spectrometric assay relative control
[8] = target: T2, Tissue alpha-L-fucosidase (Bos taurus) (UniProt Q2KIM0); experiment: Inhibition of bovine kidney alpha-L-fucosidase assessed as release of p-nitrophenol at 1000 uM using p-nitrophenyl glycoside as substrate by spectrometric assay relative to control
T2 sequence (whole entry): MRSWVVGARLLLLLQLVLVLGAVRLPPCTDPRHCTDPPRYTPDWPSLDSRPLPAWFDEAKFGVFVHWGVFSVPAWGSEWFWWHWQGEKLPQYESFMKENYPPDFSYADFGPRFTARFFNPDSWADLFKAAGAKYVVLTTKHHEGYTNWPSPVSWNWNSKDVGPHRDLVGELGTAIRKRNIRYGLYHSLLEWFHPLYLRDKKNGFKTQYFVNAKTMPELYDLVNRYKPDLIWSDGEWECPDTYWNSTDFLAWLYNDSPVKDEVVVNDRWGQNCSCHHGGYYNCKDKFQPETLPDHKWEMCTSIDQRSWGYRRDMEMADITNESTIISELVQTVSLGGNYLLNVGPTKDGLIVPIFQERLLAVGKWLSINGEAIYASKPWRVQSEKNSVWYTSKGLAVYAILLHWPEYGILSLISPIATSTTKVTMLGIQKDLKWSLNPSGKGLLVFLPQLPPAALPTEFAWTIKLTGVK

Aspergillus niger = experiment: Inhibition of Aspergillus niger amyloglucosidase assessed as release of p-nitrophenol at 1000 uM using p-nitrophenyl glycoside as substrate by spectrometric assay relative to control
Penicillium decumbens = experiment: Inhibition of Penicillium decumbens alpha-L-rhamnosidase assessed as release of p-nitrophenol at 1000 uM using p-nitrophenyl glycoside as substrate by spectrometric assay relative to control
[9] = Inhibition of Escherichia coli beta-glucuronidase assessed as release of p-nitrophenol using p-nitrophenyl glycoside as substrate by spectrometric assay
Bos taurus [10] = species on record: Bos taurus; experiment: Inhibition of bovine liver beta-glucronidase assessed as release of p-nitrophenol at 1000 uM using p-nitrophenyl glycoside as substrate by spectrometric assay relative to control
[11] = Inhibition of bovine liver beta-glucosidase assessed as release of p-nitrophenol using p-nitrophenyl glycoside as substrate by spectrometric assay; set-up: species or system Bos taurus
[12] = Inhibition of yeast alpha-glucosidase assessed as release of p-nitrophenol using p-nitrophenyl glycoside as substrate by spectrometric assay; set-up: species or system Saccharomyces cerevisiae
[13] = Inhibition of Aspergillus niger amyloglucosidase assessed as release of p-nitrophenol using p-nitrophenyl glycoside as substrate by spectrometric assay
[14] = Inhibition of porcine kidney alpha-trehalase assessed as release of p-nitrophenol using p-nitrophenyl glycoside as substrate by spectrometric assay; set-up: species or system Sus scrofa
[15] = Inhibition of bovine liver beta-galactosidase assessed as release of p-nitrophenol using p-nitrophenyl glycoside as substrate by spectrometric assay; set-up: species or system Bos taurus
Escherichia coli = experiment: Inhibition of Escherichia coli beta-glucuronidase assessed as release of p-nitrophenol at 1000 uM using p-nitrophenyl glycoside as substrate by spectrometric assay relative to control

| inhibition (Sus scrofa) | IC50 [1] | IC50 [2] | inhibition (Prunus dulcis) | IC50 [3] | inhibition (Bos taurus [4]) | inhibition [5] | inhibition (Bos taurus [6]) | inhibition [7] | inhibition (Helix pomatia) | inhibition [8] | inhibition (Aspergillus niger) | inhibition (Penicillium decumbens) | inhibition (Bos taurus [10]) | IC50 [12] | SMILES | other results |
| --- | --- | --- | --- | --- | --- | --- | --- | --- | --- | --- | --- | --- | --- | --- | --- | --- |
| 2.4% | 2.3 µM | 79 µM | 8% | 59 µM | 34.3% | 4.6% | 36.9% | 1.9% | 3.6% | 20.8% | 2% | 11.3% | 7.2% | – | CCCC[C@]1(CO)NC[C@@H](O)[C@@H]1O | inhibition (Saccharomyces cerevisiae): 32.7%; IC50 [9]: 774 µM |
| – | – | – | – | – | – | – | < 50% | – | < 50% | – | – | < 50% | – | 0.15 µM | OC[C@H]1NC[C@@H](O)[C@@H]1O | IC50 [11]: 638 µM; IC50 [13]: 362 µM; IC50 [14]: 4.8 µM |
| 6.4% | 455 µM | 130 µM | 6.8% | 727 µM | 49.2% | 2.5% | – | 0% | 0% | 0% | 3.9% | 0% | 4.6% | 116 µM | CCCCCCCCC[C@]1(CO)NC[C@@H](O)[C@@H]1O | IC50 [15]: 477 µM; inhibition (Escherichia coli): 31.6% |
